Measured values as given in the supplement of paper PMC7695840.
Structures can show the parent of a compound that is named as a salt.

How the values were obtained:
[1] = system: Staphylococcus aureus MW2 (mecA+); assay: IC50 (growth, competition assay); settings: cefoxitin: subinhibitory
Procedure, shortened: (§1)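 Two fluorescent S. aureus MW2 strains, one carrying and one lacking the resistance gene, were pre-induced, mixed 1:1 and grown unshaken in LB in 1536-well plates for 20 h at 37 °C and 90% humidity with a subinhibitory drug dose set each day. Compounds were tested on five- or nine-point 2-fold gradients in two dye-swapped replicates. DsRed (540/590) and GFP (485/520) signals were scaled per plate between the medians of single-strain controls, and No Treatment was then set to 0.5. For each strain, IC50 was taken as the dose that halved the No Treatment signal, or else the maximal signal.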

[2] = system: Staphylococcus aureus MW2 delta-mecA (mecA-); assay: IC50 (growth, competition assay); settings: cefoxitin: subinhibitory
Procedure, shortened: as §1

| Structure (SMILES) | IC50 ([1]; fluorescent label: DsRed) [µM] | IC50 ([1]; fluorescent label: GFP) [µM] | IC50 ([2]; fluorescent label: DsRed) [µM] | IC50 ([2]; fluorescent label: GFP) [µM] |
| --- | --- | --- | --- | --- |
| O=c1[nH]c(=O)n([C@H]2C[C@H](O)[C@@H](CO)O2)cc1C(F)(F)F [VIROPTIC] | 59 | 108 | < 9.85 | < 9.85 |
| COc1cc([C@@H]2c3cc4c(cc3[C@@H](O[C@@H]3O[C@@H]5CO[C@@H](c6cccs6)O[C@H]5[C@H](O)[C@H]3O)[C@H]3COC(=O)[C@H]23)OCO4)cc(OC)c1O [VUMON] | < 9.85 | < 9.85 | < 9.85 | < 9.85 |
| CC(C)(C)C#Cc1cc(N(C(=O)[C@H]2CC[C@H](C)CC2)[C@H]2CC[C@H](O)CC2)c(C(=O)O)s1 [VX-222] | 25.7 | 53.7 | 16.8 | 17.4 |
| CN[C@H](CC(C)C)C(=O)N[C@H]1C(=O)N[C@@H](CC(N)=O)C(=O)N[C@H]2C(=O)N[C@H]3C(=O)N[C@H](C(=O)N[C@H](C(=O)O)c4cc(O)cc(O)c4-c4cc3ccc4O)[C@H](O)c3ccc(c(Cl)c3)Oc3cc2cc(c3O[C@@H]2O[C@H](CO)[C@@H](O)[C@H](O)[C@H]2O[C@H]2C[C@](C)(N)[C@H](O)[C@H](C)O2)Oc2ccc(cc2Cl)[C@H]1O [Vancomycin HCl (Vancocin)] | < 9.85 | < 9.85 | < 9.85 | < 9.85 |
| CCC[C@H](NC(=O)/C(C#N)=C/c1cccc(Br)n1)c1ccccc1 [WP1130] | 13.7 | 27.5 | 2.28 | 0.904 |
| COC(=O)Nc1ccc(-c2nc(N3CCOCC3)c3cnn(C4CCN(Cc5cccnc5)CC4)c3n2)cc1 [WYE-687] | 49.6 | 74.8 | 15.1 | < 9.85 |
| CCC(=O)Nc1cccc(Oc2nc(Nc3ccc(N4CCN(C)CC4)cc3OC)ncc2Cl)c1 [WZ4003] | > 150 | > 150 | > 150 | > 150 |
| C=CC(=O)Nc1cccc(Sc2nc(Nc3ccc(N4CCN(C)CC4)cc3)ncc2Cl)c1 [WZ8040] | 17.1 | 28.9 | 2.02 | 2.67 |
| O=C(NC[C@H]1CN(c2ccc(N3CCOCC3=O)cc2)C(=O)O1)c1ccc(Cl)s1 [XARELTO] | < 9.85 | < 9.85 | < 9.85 | < 9.85 |
| CO[C@H]1/C=C/O[C@@]2(C)Oc3c(C)c(O)c4c(O)c(c5c(nc6cc(C)ccn65)c4c3C2=O)NC(=O)/C(C)=C\C=C\[C@H](C)[C@H](O)[C@@H](C)[C@@H](O)[C@@H](C)[C@H](OC(C)=O)[C@@H]1C [XIFAXAN] | < 9.85 | < 9.85 | < 9.85 | < 9.85 |
| O=S(=O)(O)c1cc(I)c(O)c2ncccc12 [YATREN] | 84.9 | 102 | 49.8 | 59.8 |
| O=C(N[C@@H](Cc1ccccc1)C(=O)CCl)OCc1ccccc1 [Z-L-Phe chloromethyl ketone] | < 9.85 | < 9.85 | < 9.85 | < 9.85 |
| C[C@@H]1CN(c2c(F)c(N)c3c(=O)c(C(=O)O)cn(C4CC4)c3c2F)C[C@H](C)N1 [ZAGAM] | < 9.85 | < 9.85 | < 9.85 | < 9.85 |
| CN(N=O)C(=O)N[C@@H]1[C@@H](O)[C@H](O)[C@@H](CO)O[C@@H]1O [ZANOSAR] | < 9.85 | < 9.85 | < 9.85 | < 9.85 |
| O=C1[C@H](CC[C@H](O)c2ccc(F)cc2)[C@@H](c2ccc(O)cc2)N1c1ccc(F)cc1 [ZETIA] | 103 | 105 | 25.9 | 24.8 |
| CO/N=C(\C(=O)N[C@@H]1C(=O)N2C(C(=O)O)=C(COC(N)=O)CS[C@H]12)c1ccco1 [ZINACEF] | 21.3 | 19.3 | < 9.85 | < 9.85 |
| [O-][n+]1ccccc1[S-].[O-][n+]1ccccc1[S-].[Zn+2] [ZINC OMADINE] | < 9.85 | < 9.85 | < 9.85 | < 9.85 |
| CC[C@H]1OC(=O)[C@H](C)[C@@H](O[C@H]2C[C@@](C)(OC)[C@@H](O)[C@H](C)O2)[C@H](C)[C@@H](O[C@@H]2O[C@H](C)C[C@H](N(C)C)[C@H]2O)[C@](C)(O)C[C@@H](C)CN(C)[C@H](C)[C@@H](O)[C@]1(C)O [ZITHROMAX] | < 9.85 | 15.7 | < 9.85 | < 9.85 |
| CCC(C)(C)C(=O)O[C@H]1C[C@@H](C)C=C2C=C[C@H](C)[C@H](CC[C@@H]3C[C@@H](O)CC(=O)O3)[C@H]21 [ZOCOR] | 129 | 115 | 47.8 | 57.6 |
| CN[C@H]1CC[C@@H](c2ccc(Cl)c(Cl)c2)c2ccccc21 [ZOLOFT] | 103 | 106 | 31.1 | 15.5 |
| CC(=O)NC[C@H]1CN(c2ccc(N3CCOCC3)c(F)c2)C(=O)O1 [ZYVOX] | < 9.85 | < 9.85 | < 9.85 | < 9.85 |
| [O-][n+]1ccccc1[S-].[O-][n+]1ccccc1[S-].[Zn+2] [Zinc Pyrithione] | < 9.85 | < 9.85 | < 9.85 | < 9.85 |
| COc1c(O)cc2oc3cc(O)c(CC=C(C)C)c(O)c3c(=O)c2c1CC=C(C)C [alpha-MANGOSTIN] | < 9.85 | < 9.85 | < 9.85 | < 9.85 |
| CC1(C)CCC2=C(O1)c1ccccc1C(=O)C2=O [beta-Lapachone] | 12.9 | 28.3 | < 9.85 | < 9.85 |
| OCCN1CCN(CC/C=C2/c3ccccc3Sc3ccc(C(F)(F)F)cc32)CC1 [cis-(Z)-Flupenthixol dihydrochloride] | 34.6 | 42.6 | 12.9 | < 9.85 |
